# Data: paper PMC4887296 (Biochemistry, 2016)
# Where two headings read alike, the source gives them in different places.
# Key:
# wild-type ypFabV [1] = molecular target: T1, wild-type ypFabV (Yersinia pestis, UniProt Q8Z9U1); type: biochemical
# Wt ypFabV = Wt ypFabV (Yersinia pestis, UniProt Q8Z9U1); assay: biochemical; type: binding
# wild-type ypFabV [2] = molecular target: T1, wild-type ypFabV; type: biochemical; remark: listed apart in the source
# T1 sequence (Q8Z9U1 whole entry, looked up): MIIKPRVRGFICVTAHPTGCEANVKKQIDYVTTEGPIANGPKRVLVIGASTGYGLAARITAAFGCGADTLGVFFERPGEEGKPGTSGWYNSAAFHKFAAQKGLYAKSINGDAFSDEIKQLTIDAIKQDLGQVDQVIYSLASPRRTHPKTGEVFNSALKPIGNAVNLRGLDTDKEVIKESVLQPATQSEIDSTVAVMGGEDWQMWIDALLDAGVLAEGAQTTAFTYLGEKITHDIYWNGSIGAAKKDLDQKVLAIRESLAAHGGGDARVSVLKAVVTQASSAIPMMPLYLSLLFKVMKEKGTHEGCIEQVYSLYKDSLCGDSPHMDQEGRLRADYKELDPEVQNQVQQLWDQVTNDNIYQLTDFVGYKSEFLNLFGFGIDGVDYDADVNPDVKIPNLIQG
# Wt ypFabV, sequence (Q8Z9U1 whole entry, looked up): as above
Structure (SMILES),Km (wild-type ypFabV [1]; read-out: KM (global fit)),"product inhibition pattern with respect to NADH, wild-type ypFabV (wild-type ypFabV [2])","product inhibition pattern with respect to ddCoA, wild-type ypFabV (wild-type ypFabV [2])","kcat, wild-type ypFabV (wild-type ypFabV [1])","Km (wild-type ypFabV [1]; read-out: KM, wild-type ypFabV)",also measured
NC(=O)C1=CN([C@@H]2O[C@H](COP(=O)(O)OP(=O)(O)OC[C@H]3O[C@@H](n4cnc5c(N)ncnc54)[C@H](O)[C@@H]3O)[C@@H](O)[C@H]2O)C=CC1 [NADH],10 ± 1 µM,–,–,–,–,"Ki (wild-type ypFabV [1]; read-out: Ki, NADH): 22 ± 3 µM; Kd (Wt ypFabV; read-out: Kd Wt ypFabV, pH 8): 13 ± 1 µM"
NC(=O)c1ccc[n+]([C@@H]2O[C@H](COP(=O)([O-])OP(=O)(O)OC[C@H]3O[C@@H](n4cnc5c(N)ncnc54)[C@H](O)[C@@H]3O)[C@@H](O)[C@H]2O)c1 [NAD^+],–,competitive,noncompetitive,–,–,–
"CCCCCCCCC/C=C/C(=O)SCCNC(=O)CCNC(=O)[C@H](O)C(C)(C)COP(=O)(O)OP(=O)(O)OC[C@H]1O[C@@H](n2cnc3c(N)ncnc32)[C@H](O)[C@@H]1OP(=O)(O)O [ddCoA, trans-2-dodecenoyl-CoA]",19 ± 1 µM,–,–,91.13 ± 7.1 s⁻¹,14 ± 1 µM,kcat (global fit) (wild-type ypFabV [1]): 97.67 ± 6.47 s⁻¹; Kd (Wt ypFabV): 13 ± 1 µM
"CCCCCCCCCCCC(=O)SCCNC(=O)CCNC(=O)[C@H](O)C(C)(C)COP(=O)(O)OP(=O)(O)OC[C@H]1O[C@@H](n2cnc3c(N)ncnc32)[C@H](O)[C@@H]1OP(=O)(O)O [lauroyl-CoA, Lauroyl-CoA]",–,noncompetitive,noncompetitive,–,–,–
CCCCCCC/C=C/C(=O)SCCNC(=O)CCNC(=O)[C@H](O)C(C)(C)COP(=O)(O)OP(=O)(O)OC[C@H]1O[C@@H](n2cnc3c(N)ncnc32)[C@H](O)[C@@H]1OP(=O)(O)O [trans-2-decenoyl-CoA],–,–,–,5.53 ± 0.333 s⁻¹,23 ± 3 µM,–
CCCCC/C=C/C(=O)SCCNC(=O)CCNC(=O)[C@H](O)C(C)(C)COP(=O)(O)OP(=O)(O)OC[C@H]1O[C@@H](n2cnc3c(N)ncnc32)[C@H](O)[C@@H]1OP(=O)(O)O [trans-2-octenoyl-CoA],–,–,–,0.267 ± 0.017 s⁻¹,7 ± 1 µM,–
